Laboratory results as given in patent US10738101B2, “Method for selecting odor-controlling substance” (Kao Corporation, priority 2015, dated 2020).

Assays:
odor of p-cresyl acetate = assay: Sensory test of cross-adaptation, target odor p-cresyl acetate; assay type: in vivo, human; settings: panelists
odor of guaiacol = assay: Sensory test of cross-adaptation, target odor guaiacol; assay type: in vivo, human; settings: panelists, test sample smelled before target sample, FIG. 6B
Experimental: (§1) The cross-adaptation effect induced by the odorous substance evaluated in Example 2 was estimated by a sensory test. A glass bottle (No. 11, manufactured by Hakuyo Glass Co., Ltd., capacity: 110 mL) was charged with a target odorous substance to be used as a target sample. As the target odorous substance, muscone, guaiacol or p-cresol was used. As the muscone, a cotton ball soaked with 1 mg of muscone was used. As the guaiacol and p-cresol, 1 mL of a mineral oil (Sigma-Aldrich) solution in a concentration of 10 ppm was used. In a similar manner, a glass bottle was charged with a test substance to be used as a test sample. As the test sample, 5 mg of an ethyl vanillin powder, or 1 mL of a mineral oil (Sigma-Aldrich) solution of p-cresyl acetate, p-cresyl isobutyrate or p-methyl quinoline prepared to a concentration of 1,000 ppm was used.
The sensory test was performed by a single blind method by five to eight panelists. The target sample was first presented to each panelist, who was caused to replay on the odor intensity. Next, the test sample was presented for 2 minutes or until the odor could not be perceived. Thereafter, the target sample was presented again, and the panelist was caused to replay on the odor intensity. This series of operations was defined as one set, and the sensory test was carried out with four sets per day per panelist set as the upper limit. […]

ethyl vanillin odor = assay: Sensory test of cross-adaptation, target odor ethyl vanillin; assay type: in vivo, human; settings: panelists
odor of p-cresol = assay: Sensory test of cross-adaptation, target odor p-cresol; assay type: in vivo, human; settings: panelists, test sample smelled before target sample, FIG. 6C
Experimental: as §1
The sensory test was performed by a single blind method by five to eight panelists. The target sample was first presented to each panelist, who was caused to replay on the odor intensity. Next, the test sample was presented for 2 minutes or until the odor could not be perceived. Thereafter, the target sample was presented again, and the panelist was caused to replay on the odor intensity. This series of operations was defined as one set, and the sensory test was carried out with four sets per day per panelist set as the upper limit. A recess of at least 10 minutes or more was provided between the sets.
The panelist was caused to plot the estimated intensity of the target odor on a straight line of 9.5 cm with both ends respectively provided with criteria “No odor” and “Strong odor”. A distance (A) between the position of the target odor intensity plotted in the initial estimate and the end of “No odor”, and a distance (B) between the position of the target odor intensity plotted in the second estimate and the end of “No odor” were obtained, so as to calculate percentage odor intensity of the initial estimate [B/A*100−100]. As this value is smaller, the intensity of the target odor perceived in the second estimate is suppressed stronger as compared with that in the initial estimate, namely, stronger cross-adaptation is induced. If this value is −100%, it means that the target odor was not perceived at all in the second estimate.

[1] = tested on: odor of p-cresyl isobutyrate; assay: Sensory test of cross-adaptation, target odor p-cresyl isobutyrate; assay type: in vivo, human; settings: panelists
OR10G4 = target: T1, OR10G4 (Homo sapiens, UniProt Q8NGN3); assay: Luciferase reporter gene assay, OR10G4-expressing HEK293 cells; assay type: cell-based; settings: FIG. 5A, 5C
T1 construct: expressed in transfected cells; host or cells: HEK293
T1 sequence (Q8NGN3 1-311): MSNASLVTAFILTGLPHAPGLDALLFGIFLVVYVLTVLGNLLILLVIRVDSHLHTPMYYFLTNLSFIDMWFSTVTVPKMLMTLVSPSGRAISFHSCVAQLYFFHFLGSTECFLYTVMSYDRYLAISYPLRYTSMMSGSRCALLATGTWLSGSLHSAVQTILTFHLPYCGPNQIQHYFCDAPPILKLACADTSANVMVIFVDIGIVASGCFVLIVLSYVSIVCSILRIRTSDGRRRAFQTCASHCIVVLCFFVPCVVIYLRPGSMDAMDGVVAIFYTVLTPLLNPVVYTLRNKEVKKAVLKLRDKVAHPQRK
Description: On the basis of sequence information registered in GenBank, genes respectively encoding 370 human olfactory receptors shown in Tables 1-1 and 1-2 and genes respectively encoding the human olfactory receptors OR5AN1, OR10G4 and OR9Q2 (respectively set forth in SEQ ID NOS: 1, 3 and 5) were cloned. Each of the genes was cloned by the PCR using human genomic DNA person (G1521: Promega) as a template. Each gene amplified by the PCR was incorporated into a pENTR vector (Invitrogen) in accordance with the instruction, and was recombined to NotI and AscI sites produced downstream from a Flag-Rho tag sequence on a pME18S vector by using NotI and AscI sites present on the pENTR vector.
In 1) of Example 1, HEK293 cells on which the 370 human olfactory receptors were respectively expressed were produced. A reaction solution having a composition shown in Table 2 was prepared and allowed to stand still in a clean bench for 15 minutes, and the resultant was added by 4.4 μL per well in a 384-well plate (BioCoat). Subsequently, the HEK293 cells (20×10^4 cells/cm^2) were seeded by 40 μL per well, and the resultant was cultured for 24 hours in an incubator kept at 37° C. and 5% CO2.
In 2) of Example 1 and Examples 2 and 3, HEK293 cells in which the human olfactory receptor OR5AN1, OR10G4, OR9Q2 or OR1A1 was expressed were produced. A reaction solution having a composition shown in Table 3 was prepared and allowed to stand still in a clean bench for 15 minutes, and the resultant was added by 10 μL per well in a 96-well plate (BioCoat). Subsequently, the HEK293 cells (3×10^5 cells/cm^2) were seeded by 90 μL per well, and the resultant was cultured for 24 hours in an incubator kept at 37° C. and 5% CO2. Cells obtained under conditions for not expressing the olfactory receptor (Mock) were also prepared to be used as a control, and were used similarly in an experiment.
The olfactory receptor expressed on the HEK293 cells increases the intracellular cAMP amount by activating adenylate cyclase in conjugation with intracellular Gαs. In the measurement of odor response in this study, luciferase reporter gene assay for monitoring the increase of the intracellular cAMP amount as a luminescence value derived from a firefly luciferase gene (fluc2P-CRE-hygro) was employed. Besides, a fused Renilla luciferase (hRluc-CMV) gene was simultaneously transferred downstream of the CMV promoter, so as to be used as an internal standard for correcting the gene transfer efficiency or an error in the number of cells. […] Under each of various stimulation conditions, a value fLuc/hRluc obtained by dividing a firefly luciferase-derived luminescence value by a Renilla luciferase-derived luminescence value was calculated. […] A dose-response curve was analyzed using Graph Pad Prism. […]

C[C@@H]1CCCCCCCCCCCCC(=O)C1 [muscone, (R)-3-methyl-1-cyclopentadecanone]
cross-adaptation of p-cresyl acetate odor induced by test substance (odor of p-cresyl acetate): did not induce the cross-adaptation
cross-adaptation of guaiacol odor induced by test substance (odor of guaiacol): not induced
cross-adaptation of ethyl vanillin odor induced by test substance (ethyl vanillin odor): not induced
cross-adaptation of p-cresol odor induced by test substance (odor of p-cresol): did not induce the cross-adaptation
cross-adaptation of p-cresyl isobutyrate odor induced by test substance [1]: did not induce the cross-adaptation
responsiveness of OR10G4 (fold increase) (OR10G4): do not have responsiveness
